Assay results from patent publication US12319652B2, “Salts and solid forms of (R)-1-(5-methoxy-1H-indol-1-yl)-N,N-dimethylpropan-2-amine” (priority 2021, dated 2025).

Columns and labels:
[1] = Solubility determinations in SIF buffers (FaSSIF, FeSSIF, FaSSGF); format: physicochemical
Protocol: At this stage ca. 1 g of each front-runner salt form was prepared. Salt forms that offered significant solubility and stability advantages over the non-ionized API were prioritized. […] Scale Up
The solubility of the salts below was determined in FaSSIF, FeSSIF and FaSSGF by reference to the calibration curve of amorphous compound 1.
Separate portions of compound 1 were weighed out into aluminum boats and were charged to the relevant volumetric flasks. Solutions were made to volume with 1 to 1 (v/v) acetonitrile/purified water to give calibrants of known API concentrations and analyzed by HPLC, suitable to determine the concentration of compound 1 free base in the SIF buffer solubility study.
Each sample (150 mg) was suspended in the relevant SIF buffer (5.0 ml), to give a concentration of 30 mg/ml and maintain at 37° C. for 24 h. The pH was adjusted using 1 M HCl or 1 M NaOH, to ensure that the suspension remains in range.
Sample (1 ml) of the well-stirred representative suspensions was obtained at 1 h, 3 h, 6 h and 24 h and the pH was recorded. The pH of the bulk suspension was re-adjusted when necessary. The obtained sample from each vial was centrifuged, and the supernatant was analysed by HPLC (note, the analyte was diluted, when outside of the calibration range); XRPD analysis was performed on the wet sample pellet for evidence of form change, as well as on the oven-dried pellet (undervacuum at 40° C.).

[2] = format: physicochemical; details: 40° C./75% RH, 10-day time point
Protocol: Equilibrium Humidity Evaluation (40° C./75% RH for 10 Days)
100 mg portions of compound 1 salts (for inputs see table below) were placed in the relevant open vials. The powders were finely divided and distributed evenly over the base of the vial, such that equal material coverage across the panel was observed. These samples were then maintained 40°C. under 75% RH. The samples were sub-sampled at intervals of 5 and 10 days and analysed by ^1H NMR, HPLC, XRPD, DSC, TGA and PLM, for evidence of phase change or chemical degradation (FIG. 269-297).

[3] = Dynamic vapor sorption (DVS); format: physicochemical; details: for DVS isotherm type / hygroscopicity: 0 to 90 to 0% RH; for DVS desorption behaviour (hysteresis): during desorption
Protocol: There are two main methods to use, one is by time where the equilibration is given by a fixed time, i.e., 1 hour per step and is appropriate for an unknown phase. The second, is by mass per time unit (dm/dt) of 0.002%/min; that is when the difference in weight is less than 0.002%, the instrument moves onto the next step. For unknown hygroscopicity, the method by time is indicated because it gives an idea of water affinity without wasting much time. Ideally the analyses are repeated using the mass equilibration method to confirm. By experience for hygroscopic samples, the analysis can continue for days. For non-hygroscopic samples the difference between the two methods may not be significant.
Consequently, amorphous batch 1 was analyzed by the fixed time method and once compound 1 fumarate crystalline polymorphic Form A was generated the analyses was repeated as mass per unit time equilibrated @dm/dt ([…]) and is given below (refer to FIG. 12).
(§1) The moisture sorption properties of the feed API were analysed by DVS Intrinsic instrument (Surface Measurement System). Approximately 20 to 50 mg of API was weighed onto an aluminium pan and loaded into the instrument equilibrated at 25° C. The sample was equilibrated under a dry atmosphere (0% relative humidity) for 60 minutes, before increasing the humidity from 0% to 30% at 5%4 step increment and from 30% to 90% at 10% step increment. A desorption cycle was also applied from 90% to 30% (10% step decrement) and from 30% to 0% (5% step decrement). A rate of change in mass per time unit (dm/dt) of 0.002%/min was set as the equilibrium parameter. Kinetic and isotherm graphs were calculated.
Specimens were equilibrated at 0% RH for 60 min, prior to DVS analyses (stepped increment % RH up to 90% RH and stepped decrement % RH down to 0% RH.
as §1, with “5%” for “5%4”

| SMILES | Change of purity profile / CP [2] | DVS isotherm type / hygroscopicity [3] | DVS 0 to 90 to 0% RH (dm/dt <0.002%) ([3]; 5.0% RH, desorption) | DVS 0 to 90 to 0% RH (dm/dt <0.002%) ([3]; 5.0% RH, sorption) | DVS 0 to 90 to 0% RH (dm/dt <0.002%) ([3]; 10.0% RH, desorption) | DVS 0 to 90 to 0% RH (dm/dt <0.002%) ([3]; 10.0% RH, sorption) | DVS 0 to 90 to 0% RH (dm/dt <0.002%) ([3]; 15.0% RH, desorption) | DVS 0 to 90 to 0% RH (dm/dt <0.002%) ([3]; 15.0% RH, sorption) | DVS 0 to 90 to 0% RH (dm/dt <0.002%) ([3]; 20.0% RH, desorption) | DVS 0 to 90 to 0% RH (dm/dt <0.002%) ([3]; 20.0% RH, sorption) | DVS 0 to 90 to 0% RH (dm/dt <0.002%) ([3]; 25.0% RH, desorption) | DVS 0 to 90 to 0% RH (dm/dt <0.002%) ([3]; 25.0% RH, sorption) | DVS 0 to 90 to 0% RH (dm/dt <0.002%) ([3]; 30.0% RH, desorption) | DVS 0 to 90 to 0% RH (dm/dt <0.002%) ([3]; 30.0% RH, sorption) | DVS 0 to 90 to 0% RH (dm/dt <0.002%) ([3]; 40.0% RH, desorption) | DVS 0 to 90 to 0% RH (dm/dt <0.002%) ([3]; 40.0% RH, sorption) | DVS 0 to 90 to 0% RH (dm/dt <0.002%) ([3]; 50.0% RH, desorption) | DVS 0 to 90 to 0% RH (dm/dt <0.002%) ([3]; 50.0% RH, sorption) | DVS 0 to 90 to 0% RH (dm/dt <0.002%) ([3]; 60.0% RH, desorption) | DVS 0 to 90 to 0% RH (dm/dt <0.002%) ([3]; 60.0% RH, sorption) | other results |
| --- | --- | --- | --- | --- | --- | --- | --- | --- | --- | --- | --- | --- | --- | --- | --- | --- | --- | --- | --- | --- | --- |
| COc1ccc2c(ccn2C[C@@H](C)N(C)C)c1.O=C(O)c1ccccc1 [compound 1 benzoate] | little changed | hygroscopic | -0.39% | 0.02% | −0.34% | 0.04% | -0.29% | 0.06% | −0.25% | 0.10% | −0.19% | 0.10% | -0.16% | 0.13% | −0.19% | 0.19% | 0.20% | 0.30% | 0.41% | 0.42% | Disproportionation in FaSSGF ([1]; 1H NMR of isolated residue, non-ionised benzoic acid present): disproportionated; Observation upon pH adjustment from 4.17 to 1.63 ([1]; SIF buffer solubility study): solid was observed; DVS weight gain at 70% RH ([3]; 70% RH (printed 70° RH in Example 8)): ca. 0.6 % w/w; DVS 0 to 90 to 0% RH (dm/dt <0.002%) ([3]; 70.0% RH, desorption): 0.61%; DVS 0 to 90 to 0% RH (dm/dt <0.002%) ([3]; 70.0% RH, sorption): 0.58%; DVS 0 to 90 to 0% RH (dm/dt <0.002%) ([3]; 80.0% RH, desorption): 0.92%; DVS 0 to 90 to 0% RH (dm/dt <0.002%) ([3]; 80.0% RH, sorption): 0.89%; DVS 0 to 90 to 0% RH (dm/dt <0.002%) ([3]; 90.0% RH, desorption): 1.52%; DVS 0 to 90 to 0% RH (dm/dt <0.002%) ([3]; 90.0% RH, sorption): 1.52%; DVS desorption behaviour (hysteresis) [3]: desorption profile was unusual and ended beneath unity |
| COc1ccc2c(ccn2C[C@@H](C)N(C)C)c1.O=C(O)/C=C\C(=O)O [compound 1 maleate] | reduction in CP | hygroscopic | −0.03% | 0.02% | 0.03% | 0.05% | 0.09% | 0.08% | 0.15% | 0.11% | 0.22% | 0.14% | 0.30% | 0.18% | 0.48% | 0.26% | 0.70% | 0.42% | 1.00% | 0.86% | Solubility in SIF buffers ([1]; FaSSIF, FeSSIF and FaSSGF, 37° C., 24 h, concentration tested 30 mg/ml): freely soluble; DVS isotherm uptake [3]: ca. 3.5 % w/w; DVS 0 to 90 to 0% RH (dm/dt <0.002%) ([3]; 0.0% RH, desorption): −0.07%; DVS 0 to 90 to 0% RH (dm/dt <0.002%) ([3]; 0.0% RH, sorption): DVS 0 to 90 to 0% RH (dm/dt <0.002%): 0.0 (0.00%), 5.0; DVS 0 to 90 to 0% RH (dm/dt <0.002%) ([3]; 70.0% RH, desorption): 1.40%; DVS 0 to 90 to 0% RH (dm/dt <0.002%) ([3]; 70.0% RH, sorption): 1.38%; DVS 0 to 90 to 0% RH (dm/dt <0.002%) ([3]; 80.0% RH, desorption): 2.03%; DVS 0 to 90 to 0% RH (dm/dt <0.002%) ([3]; 80.0% RH, sorption): 2.00%; DVS 0 to 90 to 0% RH (dm/dt <0.002%) ([3]; 90.0% RH, desorption): 3.44%; DVS 0 to 90 to 0% RH (dm/dt <0.002%) ([3]; 90.0% RH, sorption): 3.44%; DVS desorption behaviour (hysteresis) [3]: small hysteresis |
